# Measured values reported in US8962608B2, “Cycloalkylnitrile pyrazole carboxamides as janus kinase inhibitors” (Merck Sharp & Dohme Corp., priority 2011, dated 2015).
# Tests used:
# [1] = target: JAK2 (recombinant purified GST-tagged catalytic domain) (Homo sapiens (Human), UniProt O60674); test: biochemical;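 note: biochemical JAK kinase assay with HTRF detection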
# [2] = target: JAK1 (recombinant purified GST-tagged catalytic domain) (Homo sapiens (Human), UniProt P23458); test: biochemical;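 note: biochemical assay with HTRF read-out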
# JAK1 (recombinant purified GST-tagged catalytic domain), sequence (P23458 875-1153): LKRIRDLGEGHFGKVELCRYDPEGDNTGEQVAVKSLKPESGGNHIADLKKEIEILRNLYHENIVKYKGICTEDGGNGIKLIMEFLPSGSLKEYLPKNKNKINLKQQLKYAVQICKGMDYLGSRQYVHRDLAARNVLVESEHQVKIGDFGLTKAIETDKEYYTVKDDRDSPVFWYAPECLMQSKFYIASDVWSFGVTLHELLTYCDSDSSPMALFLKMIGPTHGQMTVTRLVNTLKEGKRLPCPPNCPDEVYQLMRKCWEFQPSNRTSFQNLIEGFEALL
# JAK2 (recombinant purified GST-tagged catalytic domain), sequence (O60674 849-1124): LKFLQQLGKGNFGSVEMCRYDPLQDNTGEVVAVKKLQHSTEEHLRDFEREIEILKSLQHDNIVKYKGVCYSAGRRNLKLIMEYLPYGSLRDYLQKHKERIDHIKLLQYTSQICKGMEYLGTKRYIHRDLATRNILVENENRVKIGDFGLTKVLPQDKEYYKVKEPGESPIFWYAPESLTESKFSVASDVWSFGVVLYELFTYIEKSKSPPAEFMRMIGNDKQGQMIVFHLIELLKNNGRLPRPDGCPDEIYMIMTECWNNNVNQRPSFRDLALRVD
SMILES,IC50 [1] [nM],IC50 [2] [nM]
"N#C[C@H]1C[C@@H](C(=O)NC2CC(F)(F)C2)CC[C@@H]1n1cc(C(N)=O)c(Nc2ccc(Cl)cc2)n1 (single isomer, unassigned) [Example 35-20, 3-[(4-chlorophenyl)amino]-1-{(1S,2S,4S or 1R,2R,4R)-2-cyano-4-[(3,3-difluorocyclobutyl)carbamoyl]cyclohexyl}-1H-pyrazole-4-carboxamide]",172,21
"N#C[C@@H]1C[C@@H](NC2CC3(CCCC3)C2)CC[C@H]1n1cc(C(N)=O)c(Nc2ccc(C(F)(F)F)cc2)n1 (single isomer, unassigned) [Example 30-5, 1-[(1R,2R,4S or 1S,2S,4R)-2-cyano-4-(spiro[3.4]oct-2-ylamino)cyclohexyl]-3-{[4-(trifluoromethyl)phenyl]amino}-1H-pyrazole-4-carboxamide]",665,21
"CN(C)[C@H]1CC[C@H](n2cc(C(N)=O)c(Nc3ccnc(F)c3)n2)[C@@H](C#N)C1 (single isomer, unassigned) [Example 28-128, 1-[(1S,2S,4S or 1R,2R,4R)-2-cyano-4-(dimethylamino)cyclohexyl]-3-[(2-fluoropyridin-4-yl)amino]-1H-pyrazole-4-carboxamide]",110,3
"N#C[C@H]1C[C@@H](N[C@@H](C2CC2)C(F)(F)F)CC[C@@H]1n1cc(C(N)=O)c(Nc2ccc(C(F)(F)F)cc2)n1 (single isomer, unassigned) [Example 28-194, 1-[(1S,2S,4S or 1R,2R,4R)-2-cyano-4-{[(1S)-1-cyclopropyl-2,2,2-trifluoroethyl]amino}cyclo-hexyl]-3-{[4-(trifluoromethyl)phenyl]amino}-1H-pyrazole-4-carboxamide]",152,4
"N#C[C@@H]1CCC[C@@H](O)C1n1cc(C(N)=O)c(Nc2ccccc2)n1 (mixture of isomers) [Example 2-5, 1-[(1R,2R,6R and 1S,2S,6S)-2-cyano-6-hydroxycyclohexyl]-3-(phenylamino)-1H-pyrazole-4-carboxamide]",> 1500,700
"N#C[C@H]1CCCC[C@@H]1n1cc(C(N)=O)c(Nc2ccc(C3CC3)nc2)n1 (single isomer, unassigned) [Example 17-80, 1-[(1R,2R or 1S,2S)-2-cyanocyclohexyl]-3-[(6-cyclopropylpyridin-3-yl)amino]-1H-pyrazole-4-carboxamide]",26,12
"CC(C)(O)C1CN(C(=O)[C@H]2CC[C@H](n3cc(C(N)=O)c(Nc4ccc(Cl)cc4)n3)[C@@H](C#N)C2)C1 (single isomer, unassigned) [Example 35-9, 3-[(4-chlorophenyl)amino]-1-[(1S,2S,4S or 1R,2R,4R)-2-cyano-4-{[3-(1-hydroxy-1-methylethyl)azetidin-1-yl]carbonyl}cyclohexyl}-1H-pyrazole-4-carboxamide]",315,30
"N#C[C@H]1C[C@H](N[C@H](C2CC2)C(F)(F)F)CC[C@@H]1n1cc(C(N)=O)c(Nc2ccc(C(F)(F)F)cc2)n1 (single isomer, unassigned) [Example 28-193, 1-[(1S,2S,4R or 1R,2R,4S)-2-cyano-4-{[(1R)-1-cyclopropyl-2,2,2-trifluoroethyl]amino}cyclo-hexyl]-3-{[4-(trifluoromethyl)phenyl]amino}-1H-pyrazole-4-carboxamide]",1000,165
"N#C[C@H]1C[C@@H](N2CCC2)CC[C@@H]1n1cc(C(N)=O)c(Nc2ccc(Cl)cc2)n1 (single isomer, unassigned) [Example 28-100, 1-[(1S,2S,4S or 1R,2R,4R)-4-azetidin-1-yl-2-cyanocyclohexyl]-3-[(4-chlorophenyl)amino]-1H-pyrazole-4-carboxamide]",41,0.7
"CN[C@@H]1CC[C@H](n2cc(C(N)=O)c(Nc3ccc(Cl)cc3)n2)[C@@H](C#N)C1 (single isomer, unassigned) [Example 28-42, 3-[(4-chlorophenyl)amino]-1-[(1S,2S,4R or 1R,2R,4S)-2-cyano-4-(methylamino)cyclohexyl]-1H-pyrazole-4-carboxamide]",36,2

# The next compounds have a lower IC50 [1] than those just listed; values first:
IC50 [1] [nM],IC50 [2] [nM],SMILES
7,0.55,"N#C[C@H]1CCCC[C@@H]1n1cc(C(N)=O)c(Nc2cnc3c(c2)CNC3=O)n1 (single isomer, unassigned) [Example 17-76, 1-[(1R,2R or 1S,2S)-2-cyanocyclohexyl]-3-[(7-oxo-6,7-dihydro-5H-pyrrolo[3,4-b]pyridin-3-yl)amino]-1H-pyrazole-4-carboxamide]"
14,2,"N#C[C@H]1C[C@@H](NC2(CO)CC2)CCC1n1cc(C(N)=O)c(Nc2ccc(Cl)cc2)n1 (single isomer, unassigned) [Example 28-223, 3-[(4-chlorophenyl)amino]-1-[(1S,2S,4S or 1R,2R,4R)-2-cyano-4-{[1-(hydroxymethyl)cyclopropyl]a-mino}cyclohexyl]-1H-pyrazole-4-carboxamide]"
11,1,"N#C[C@H]1CCCC[C@@H]1n1cc(C(N)=O)c(Nc2ccc(Br)cc2)n1 (single isomer, unassigned) [Example 17-26, 3-[(4-bromophenyl)amino]-1-[(1S,2S or 1R,2R)-2-cyanocyclohexyl]-1H-pyrazole-4-carboxamide]"
6,0.45,"N#C[C@H]1C[C@H](N2CC(F)C2)CC[C@@H]1n1cc(C(N)=O)c(Nc2ccc(S(=O)(=O)C(F)(F)F)cc2)n1 (single isomer, unassigned) [Example 28-112, 1-[(1S,2S,4R or 1R,2R,4S)-2-cyano-4-(3-fluoroazetidin-1-yl)cyclohexyl]-3-({4-[(trifluoro-methyl)sulfonyl]phenyl}amino)-1H-pyrazole-4-carboxamide]"
3,0.5,"N#Cc1ccc(Nc2nn([C@H]3CC[C@H](O)C[C@@H]3C#N)cc2C(N)=O)cc1 (single isomer, unassigned) [Example 33-6, 1-[(1S,2S,4S or 1R,2R,4R)-2-cyano-4-hydroxycyclohexyl]-3-[(4-cyanophenyl)amino]-1H-pyrazole-4-carboxamide]"
17,6,"COC(=O)c1ncc(Nc2nn([C@H]3CCCC[C@@H]3C#N)cc2C(N)=O)cc1C (single isomer, unassigned) [Example 17-78, methyl 5-({4-carbamoyl-1-[(1R,2R or 1S,2S)-2-cyanocyclohexyl]-1H-pyrazol-3-yl}amino)-3-methylpyridine-2-carboxylate]"
24,4,"CC1(N[C@H]2CCC(n3cc(C(N)=O)c(Nc4ccccc4)n3)[C@@H](C#N)C2)COC1 (single isomer, unassigned) [Example 28-230, 1-{(1S,2S,4S or 1R,2R,4R)-2-cyano-4-[(3-methyloxetan-3-yl)amino]cyclohexyl}-3-(phenylamino)-1H-pyrazole-4-carboxamide]"
8,0.9,"CS(=O)(=O)N[C@@H]1CC[C@H](n2cc(C(N)=O)c(Nc3ccc(Cl)cc3)n2)[C@@H](C#N)C1 (racemic) [Example 38-3, 3-[(4-chlorophenyl)amino]-1-{(1S,2S,4R and 1R,2R,4S)-2-cyano-4-[(methylsulfonyl)amino]cyclohexyl}-1H-pyrazole-4-carboxamide]"
